Results as given in patent publication US8846692B2, “Carboxylic acid derivatives having a 2,5-substituted oxazolopyrimidine ring” (Sanofi, priority 2010, dated 2014).

molecular target: T1, human Edg-1 receptor (Homo sapiens, UniProt P21453); test: GTP-γ-S assay using human Edg-1 receptors (scintillation proximity assay, CHO Flp-In cell membrane preparation); assay type: biochemical; settings: test compound at 10 μM; 10 μM S1P high control regarded as 100% activation; triplicate
T1 construct: expressed in transfected cells; membrane preparation
Source text: Determination of the Pharmacological Activity A) GTP-γ-S Assay Using Human Edg-1 Receptors
In order to determine the Edg-1 receptor activation by the compounds of the invention, a GTP-γ-S (guanosine 5′-[γ-thio]triphosphate) assay for G-protein coupled receptor binding based on the scintillation proximity assay principle was used, employing a cell membrane preparation from a CHO Flp-In cell line which constitutively overexpresses the human Edg-1 receptor.
A membrane preparation was obtained by standard methods from the afore-described CHO Flp-In cell line constitutively overexpressing the human Edg-1 receptor. Briefly, the cryopreserved cells were taken in culture and grown until confluency in T175 cell culture flasks (Becton Dickinson, cat. no. 35 5001). Cell culture was stopped by washing with calcium-free phosphate-buffered saline (PBS; Gibco, cat. no. 14190), and cells were harvested with a rubber-policeman in 4° C. cold and calcium-free PBS supplemented with a protease inhibitor cocktail (complete protease inhibitor; Roche, cat. no. 1697498; 1 tablet per 50 ml) and subsequently centrifuged at 4° C. for 15 min at 1100×g (Heraeus Minifuge T). For cell lysis, the pellet was resuspended in a 4° C. cold hypotonic buffer consisting of 5 mM HEPES (Sigma-Aldrich, cat. no. H-0981), 1 mM EDTA (disodium salt; Merck, cat. No. 8418) supplemented with protease inhibitor cocktail (as above) in which cells were stored for another 15 min on ice. After lysis, cells were centrifuged at 4° C. for 10 min at 400×g (Heraeus Minifuge T). The pellet was disrupted in a Dounce homogenizer, diluted with the supernatant of the previous centrifugation and subsequently centrifuged at 4° C. for 10 min at 500×g (Heraeus Minifuge T) in order to separate nuclei and still intact cells from the membranes mainly present in the supernatant. The supernatant was then diluted in hypotonic buffer and centrifuged (Beckmann, Avanti J251) at approximately 18600×g for 2 h at 4° C. After centrifugation, the membrane pellet was resuspended in a storing buffer consisting of 20 mM HEPES; 150 mM NaCl (Merck, cat. no. 6400), 1 mM EDTA (as above) supplemented with protease inhibitor cocktail (as above). The membrane preparation was aliquoted and stored at −80° C. Protein concentration of the membrane preparation was determined in a sample by means of a commercial protein assay (Bio-Rad, DC Protein Assay, cat. nos. 500-0113, 500-0114, 500-0115).
The Edg-1 membrane preparation obtained in (b) was employed in a commercially available scintillation proximity assay (SPA) kit for G-protein coupled receptor binding from Amersham Biosciences/GE Healthcare (code RPNQ0210), in which ligand-induced binding of ^35S-radiolabled GTP-γ-S to the receptor-containing membrane, which is bound to scintillation beads, stimulates the emission of light and allows to quantify the in vitro activity of the Edg-1 agonistic compound. The assay was performed on a 96-well plate scale substantially according to the manufacturer's instructions. Before start of the experiments, scintillation beads were suspended in a reconstitution buffer consisting of Tris-HCl (pH 7.4) supplemented with 0.1% (w/v) sodium azide and subsequently diluted on ice with assay buffer (consisting of 20 mM HEPES, 100 mM NaCl, 1 mM EDTA (as above), 1 mM dithiothreitol (DTT), adjusted to pH 7.4) to a final bead concentration of 30 mg/ml.
Wells were charged with 10 μl of the specified assay buffer, 10 μl of a 100 μM guanosine diphosphate (GDP) solution, and 10 μl of a solution of the test compound in assay buffer/dimethylsulfoxide resulting in a final concentration of the test compound of 10 μM. For the high controls, 10 μl of a solution of sphingosine-1-phosphate (S1P; Sigma, cat. no. S-9666), resulting in a final S1P concentration of 10 μM, and for the low controls 10 μl of assay buffer, was added into respective wells instead of the solution of the test compound. All wells contained equivalent amounts of dimethylsulfoxide. […]

T1 sequence (P21453 whole entry): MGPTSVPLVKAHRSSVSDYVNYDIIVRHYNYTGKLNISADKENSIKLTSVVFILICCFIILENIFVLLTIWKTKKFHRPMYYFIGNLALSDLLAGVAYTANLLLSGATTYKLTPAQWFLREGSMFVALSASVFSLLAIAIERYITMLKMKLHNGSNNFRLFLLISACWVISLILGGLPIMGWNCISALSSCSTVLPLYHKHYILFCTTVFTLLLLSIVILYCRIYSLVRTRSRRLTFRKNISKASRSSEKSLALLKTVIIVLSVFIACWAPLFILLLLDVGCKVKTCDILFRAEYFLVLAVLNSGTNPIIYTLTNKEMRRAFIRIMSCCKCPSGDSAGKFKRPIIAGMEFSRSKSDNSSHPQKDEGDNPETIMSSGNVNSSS

% Activation (Edg-1 receptor activation in percent of the activation by 10 μM S1P) [%]	Structure (SMILES)
74	Cc1cc(-c2nc3cnc(Oc4cccc(Cl)c4)nc3o2)cc(C)c1OCC(=O)O [Example 8, {4-[5-(3-chloro-phenoxy)-oxazolo[5,4-d]pyrimidin-2-yl]-2,6-dimethyl-phenoxy}-acetic acid]

same assay, conditions: test compound at 10 μM; 10 μM S1P high control regarded as 100% activation; triplicate; read-out: % Activation (Edg-1 receptor activation in percent of the activation by 10 μM S1P)

activation at 10 µM [%]	Structure (SMILES)
116	Cc1cc(-c2nc3cnc(Oc4ccccc4)nc3o2)cc(C)c1OCC(=O)O [Example 1, [2,6-Dimethyl-4-(5-phenoxy-oxazolo[5,4-d]pyrimidin-2-yl)-phenoxy]-acetic acid]
83	O=C(O)/C=C/c1ccc(-c2nc3cnc(Oc4ccccc4F)nc3o2)cc1 [Example 2, (E)-3-{4-[5-(2-Fluoro-phenoxy)-oxazolo[5,4-d]pyrimidin-2-yl]-phenyl}-acrylic acid]
95	Cc1cc(-c2nc3cnc(Oc4ccc(F)cc4F)nc3o2)cc(C)c1OCC(=O)O [Example 3, {4-[5-(2,4-difluoro-phenoxy)-oxazolo[5,4-d]pyrimidin-2-yl]-2,6-dimethyl-phenoxy}-acetic acid]
103	Cc1cc(-c2nc3cnc(Oc4cc(F)ccc4F)nc3o2)cc(C)c1OCC(=O)O [Example 4, {4-[5-(2,5-difluoro-phenoxy)-oxazolo[5,4-d]pyrimidin-2-yl]-2,6-dimethyl-phenoxy}-acetic acid]
101	Cc1ccc(Oc2ncc3nc(-c4cc(C)c(OCC(=O)O)c(C)c4)oc3n2)c(F)c1 [Example 5, {4-[5-(2-fluoro-4-methyl-phenoxy)-oxazolo[5,4-d]pyrimidin-2-yl]-2,6-dimethyl-phenoxy}-acetic acid]
110	Cc1cc(-c2nc3cnc(Oc4ccccc4F)nc3o2)cc(C)c1OCC(=O)O [Example 6, {4-[5-(2-fluoro-phenoxy)-oxazolo[5,4-d]pyrimidin-2-yl]-2,6-dimethyl-phenoxy}-acetic acid]
84	Cc1cc(-c2nc3cnc(Oc4ccccc4F)nc3o2)cc(C)c1OC(C)C(=O)O (stereo not drawn) [Example 7, 2-{4-[5-(2-fluoro-phenoxy)-oxazolo[5,4-d]pyrimidin-2-yl]-2,6-dimethyl-phenoxy}-propionic acid]
87	Cc1ccc(Oc2ncc3nc(-c4cc(C)c(OCC(=O)O)c(C)c4)oc3n2)cc1F [Example 9, {4-[5-(3-fluoro-4-methyl-phenoxy)-oxazolo[5,4-d]pyrimidin-2-yl]-2,6-dimethyl-phenoxy}-acetic acid]
112	Cc1ccc(F)cc1Oc1ncc2nc(-c3cc(C)c(OCC(=O)O)c(C)c3)oc2n1 [Example 10, {4-[5-(5-fluoro-2-methyl-phenoxy)-oxazolo[5,4-d]pyrimidin-2-yl]-2,6-dimethyl-phenoxy}-acetic acid]
105	Cc1cc(-c2nc3cnc(Oc4ccc(Cl)cc4)nc3o2)cc(C)c1OCC(=O)O [Example 11, {4-[5-(4-chloro-phenoxy)-oxazolo[5,4-d]pyrimidin-2-yl]-2,6-dimethyl-phenoxy}-acetic acid]
46	Cc1cc(-c2nc3cnc(OC4CCCC4)nc3o2)cc(C)c1OCC(=O)O [Example 12, [4-(5-cyclopentyloxy-oxazolo[5,4-d]pyrimidin-2-yl)-2,6-dimethyl-phenoxy]-acetic acid]
